Data on 30 compounds can be found in patent publication US9255090B2, “Heterocyclyl derivatives and their use as prostaglandin D2 receptor modulators” (Actelion Pharmaceuticals Ltd., priority 2012, dated 2016).

The target in this test is hCRTH2 receptor (Homo sapiens (Human), UniProt Q9Y5Y4). The test is described as follows: hCRTH2 receptor membranes radioligand (3H-PGD2) displacement assay. The test is classed as binding. The settings on record: 3H-PGD2 radioligand displacement, HEK293-hCRTH2 membranes. How it is done:
Biological Assays: Preparation of hCRTH2 Receptor Membranes and Radioligand Displacement Assay:
First, recombinant HEK293-hCRTH2 cells were detached from culture plates into 5 ml buffer A/plate (Buffer A: 5 mM Tris, 1 mM MgCl2-6H2O pH=7.4) using a rubber policeman. Cells were then transferred into centrifugation tubes and centrifuged for 5 min at 400 g. The cell pellet was resuspended in the same buffer and tubes were frozen at −80° C. Cells were thawed and membrane fragments were generated by homogenization using a polytron homogenizer (30 seconds). The membrane fragments were then centrifuged at 3000 g for 20 minutes and resuspended in buffer C (Buffer C: 75 mM Tris, 25 mM MgCl2, 250 mM Saccharose pH 7.4). Aliquots of membrane fragments were stored at −20° C.
Binding assay was performed in a final assay volume of 250 μl. First, 25 μl of test compound, previously diluted in Binding-Buffer (Binding-Buffer: 50 mM Tris-Base, 100 mM NaCl, 1 mM EDTA, 0.1% BSA (protease free), 0.01% NaN3, 10 mM MnCl2, pH 7.0) was placed into each well. After addition of 75 μl Binding-Buffer, 50 μl of the radioligand ^3H-PGD2 (at 2.5 nM (220.000 dpm/well) from ANAWA ART0662) was added to each well. Binding assay was started by addition of 100 μl CRTH2 membrane fragments, reaching a final concentration of 20 μg/well. For non-specific binding, PGD2 was added to the reaction mixture to […] final concentration. This assay mix was incubated for 90 minutes at room temperature and then filtered through a GF/C filter 96-well plate which was pre-soaked for 3 hours in 0.5% polyethyleneimine (PEI). The filter-wells were washed three times with ice cold Binding-Buffer. Then, 40 μl of Microscint-40 (Packard) was added to each well and the retained radioactivity quantified in a Topcount (Packard).
(In general: Loss of bound radioactivity is the signal in a displacement assay; it reports binding, not function.)

Sequence of hCRTH2 receptor (Q9Y5Y4 whole entry): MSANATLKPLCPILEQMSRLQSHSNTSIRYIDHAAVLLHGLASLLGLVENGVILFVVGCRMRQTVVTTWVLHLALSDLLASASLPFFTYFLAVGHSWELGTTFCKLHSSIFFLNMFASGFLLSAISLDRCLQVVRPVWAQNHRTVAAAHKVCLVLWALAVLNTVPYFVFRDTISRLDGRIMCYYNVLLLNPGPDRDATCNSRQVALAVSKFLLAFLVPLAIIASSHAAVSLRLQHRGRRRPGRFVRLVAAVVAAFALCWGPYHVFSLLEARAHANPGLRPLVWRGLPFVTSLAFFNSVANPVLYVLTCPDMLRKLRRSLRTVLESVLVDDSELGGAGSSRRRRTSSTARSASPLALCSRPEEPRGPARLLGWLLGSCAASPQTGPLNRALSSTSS

One may read the IC50 as the concentration at which inhibition is half-maximal. High values mean lower potency, low ones higher potency. `COc1ccc(CC(=O)O)cc1-c1ccc(F)c2c1CN(C(=O)C1Cc3ccccc3C1)CC2` [Example 110, {3-[5-Fluoro-2-(indane-2-carbonyl)-1,2,3,4-tetrahydro-isoquinolin-8-yl]-4-methoxy-phenyl}-acetic acid] had an IC50 of 0.172 µM.
The same measure for `COc1ccc(CC(=O)O)cc1-c1ccc(F)c2c1CN(C(=O)C1Cc3ccccc3CO1)CC2` (racemic) [Example 274]: 0.0582 µM; for `CCOc1cc(CC(=O)O)ccc1-c1ccc(F)c2c1CN(C(=O)OCC1CC1)CC2` [Example 391, 8-(4-Carboxymethyl-2-ethoxy-phenyl)-5-fluoro-3,4-dihydro-1H-isoquinoline-2-carboxylic acid cyclopropylmethyl ester]: 0.0016 µM; for `CCOc1ccc(CC(=O)O)cc1-c1ccc(F)c2c1CN(C(=O)OCC=C(C)C)CC2` [Example 375, 8-(5-Carboxymethyl-2-ethoxy-phenyl)-5-fluoro-3,4-dihydro-1H-isoquinoline-2-carboxylic acid 3-methyl-but-2-enyl ester]: 0.0087 µM.
The same measure for `CC(C)Oc1ccc(CC(=O)O)cc1-c1ccc(F)c2c1CN(C(=O)C[C@@H](C)c1ccccc1)CC2` [Example 292, {3-[5-Fluoro-2-((R)-3-phenyl-butyryl)-1,2,3,4-tetrahydro-isoquinolin-8-yl]-4-isopropoxy-phenyl}-acetic acid]: 0.0025 µM.
Under `C#CCCOC(=O)N1CCc2c(F)ccc(-c3cc(CC(=O)O)ccc3OCC)c2C1` [Example 381, 8-(5-Carboxymethyl-2-ethoxy-phenyl)-5-fluoro-3,4-dihydro-1H-isoquinoline-2-carboxylic acid but-3-ynyl ester] stands 0.0288 µM.
`COc1cc(OC(C)C(=O)O)ccc1-c1ccc(F)c2c1CN(C(=O)OCc1ccccc1)CC2` (stereo not drawn) [Example 202, 8-[4-(1-Carboxy-ethoxy)-2-methoxy-phenyl]-5-fluoro-3,4-dihydro-1H-isoquinoline-2-carboxylic acid benzyl ester] gave a half-inhibitory concentration (IC50) of 0.179 µM.
In turn, `C[C@H](CC(=O)N1CCc2c(F)ccc(-c3ccc(CC(=O)O)cc3OCC(F)(F)F)c2C1)c1ccccc1` [Example 347, [4-[5-Fluoro-2-((R)-3-phenyl-butyryl)-1,2,3,4-tetrahydro-isoquinolin-8-yl]-3-(2,2,2-trifluoro-ethoxy)-phenyl]-acetic acid] displayed an IC50 of 0.0015 µM.
The same measure for `COc1ccc(CC(=O)O)cc1-c1ccc(F)c2c1CN(C(=O)Cc1cn(C)c3ccccc13)CC2` [Example 119, (3-{5-Fluoro-2-[2-(1-methyl-1H-indol-3-yl)-acetyl]-1,2,3,4-tetrahydro-isoquinolin-8-yl}-4-methoxy-phenyl)-acetic acid]: 0.0695 µM; for `O=C(O)COc1ccc(OC(F)(F)F)c(-c2ccc(F)c3c2CN(C(=O)[C@@H]2C[C@H]2c2ccccc2)CC3)c1` [Example 160, {3-[5-Fluoro-2-((1R,2R)-2-phenyl-cyclopropanecarbonyl)-1,2,3,4-tetrahydro-isoquinolin-8-yl]-4-trifluoromethoxy-phenoxy}-acetic acid]: 0.00067 µM.
With `COc1ccc(CC(=O)O)cc1-c1ccc(Cl)c2c1CN(C(=O)CCc1cn(C)c3ccccc13)CC2` [Example 75, (3-{5-Chloro-2-[3-(1-methyl-1H-indol-3-yl)-propionyl]-1,2,3,4-tetrahydro-isoquinolin-8-yl}-4-methoxy-phenyl)-acetic acid], the IC50 is 0.0384 µM.
Under `COc1cc(CC(=O)O)ccc1-c1ccc(F)c2c1CN(C(=O)CCN1CCc3ccccc31)CC2` [Example 191, {4-[2-(3-2,3-Dihydro-indol-1-yl-propionyl)-5-fluoro-1,2,3,4-tetrahydro-isoquinolin-8-yl]-3-methoxy-phenyl}-acetic acid] stands 0.00242 µM; under `COc1ccc(CC(=O)O)cc1-c1ccc(F)c2c1CN(C(=O)CCC(=O)c1ccccc1)CC2` [Example 118, {3-[5-Fluoro-2-(4-oxo-4-phenyl-butyryl)-1,2,3,4-tetrahydro-isoquinolin-8-yl]-4-methoxy-phenyl}-acetic acid], 0.0386 µM.
The same measure for `CCOc1ccc(CC(=O)O)cc1-c1ccc(F)c2c1CN(C(=O)CC(C)c1ccccc1F)CC2` (racemic) [Example 280]: 0.0034 µM; for `CCOc1ccc(CC(=O)O)cc1-c1ccc(F)c2c1CN(C(=O)OCCOC)CC2` [Example 378, 8-(5-Carboxymethyl-2-ethoxy-phenyl)-5-fluoro-3,4-dihydro-1H-isoquinoline-2-carboxylic acid 2-methoxy-ethyl ester]: 0.0059 µM.
`CCOc1cc(C(C)C(=O)O)ccc1-c1ccc(F)c2c1CN(C(=O)OCc1ccccc1)CC2` (racemic) [Example 425]: the half-inhibitory concentration (IC50) stood at 0.0113 µM.
The same measure for `COc1ccc(CC(=O)O)cc1-c1ccc(F)c2c1CN(C(=O)CCc1ccccc1C)CC2` [Example 56, {3-[5-Fluoro-2-(3-o-tolyl-propionyl)-1,2,3,4-tetrahydro-isoquinolin-8-yl]-4-methoxy-phenyl}-acetic acid]: 0.0421 µM.
Under `COc1ccc(CC(=O)O)cc1-c1ccc(F)c2c1CN(C(=O)CC1Cc3ccccc3C1)CC2` [Example 111, {3-[5-Fluoro-2-(2-indan-2-yl-acetyl)-1,2,3,4-tetrahydro-isoquinolin-8-yl]-4-methoxy-phenyl}-acetic acid] stands 0.00811 µM; under `O=C(O)Cc1ccc(OCCF)c(-c2ccc(F)c3c2CN(C(=O)[C@@H]2C[C@H]2c2ccccc2)CC3)c1` [Example 427, {4-(2-Fluoro-ethoxy)-3-[5-fluoro-2-((1R,2R)-2-phenyl-cyclopropanecarbonyl)-1,2,3,4-tetrahydro-isoquinolin-8-yl]-phenyl}-acetic acid], 0.0031 µM; under `CCCc1ccc(CC(=O)O)cc1-c1ccc(F)c2c1CN(C(=O)OCc1ccccc1)CC2` [Example 215, 8-(5-Carboxymethyl-2-propyl-phenyl)-5-fluoro-3,4-dihydro-1H-isoquinoline-2-carboxylic acid benzyl ester], 0.0036 µM.
The same measure for `CCOc1ccc(CC(=O)O)cc1-c1ccc(F)c2c1CN(C(=O)Cc1ccccn1)CC2` [Example 340, {4-Ethoxy-3-[5-fluoro-2-(2-pyridin-2-yl-acetyl)-1,2,3,4-tetrahydro-isoquinolin-8-yl]-phenyl}-acetic acid]: 0.897 µM; for `COc1ccc(CC(=O)O)cc1-c1ccc(F)c2c1CN(C(=O)C1OCCc3ccccc31)CC2` (racemic) [Example 273]: 0.683 µM; for `COc1ccc(CC(=O)O)cc1-c1ccc(F)c2c1CCN(C(=O)CCN1CCCc3ccccc31)C2` [Example 104, {3-[2-(3-3,4-Dihydro-2H-quinolin-1-yl-propionyl)-8-fluoro-1,2,3,4-tetrahydro-isoquinolin-5-yl]-4-methoxy-phenyl}-acetic acid]: 0.0213 µM.
Compound `COc1ccc(CC(=O)O)cc1-c1ccc(F)c2c1CN(C(=O)C1C(C)(C)C1(C)C)CC2` [Example 50, {3-[5-Fluoro-2-(2,2,3,3-tetramethyl-cyclopropanecarbonyl)-1,2,3,4-tetrahydro-isoquinolin-8-yl]-4-methoxy-phenyl}-acetic acid] returned a half-inhibitory concentration (IC50) of 0.267 µM.
The same measure for `CCC(Oc1ccc(OC)c(-c2ccc(F)c3c2CN(C(=O)OCc2ccccc2)CC3)c1)C(=O)O` (racemic) [Example 415]: 0.337 µM; for `CCOc1ccc(CC(=O)O)cc1-c1ccc(F)c2c1CN(C(=O)CC1(c3ccccc3F)CC1)CC2` [Example 276, [4-Ethoxy-3-(5-fluoro-2-{2-[1-(2-fluoro-phenyl)-cyclopropyl]-acetyl}-1,2,3,4-tetrahydro-isoquinolin-8-yl)-phenyl]-acetic acid]: 0.0359 µM.
The same measure for `COc1ccc(CC(=O)O)cc1-c1ccc(F)c2c1CCN(C(=O)CCOc1ccccc1)C2` [Example 102, {3-[8-Fluoro-2-(3-phenoxy-propionyl)-1,2,3,4-tetrahydro-isoquinolin-5-yl]-4-methoxy-phenyl}-acetic acid]: 0.043 µM; for `CCOc1cc(CC(=O)O)ccc1-c1ccc(F)c2c1CN(C(=O)NCc1ccccc1)CC2` [Example 446, [4-(2-Benzylcarbamoyl-5-fluoro-1,2,3,4-tetrahydro-isoquinolin-8-yl)-3-ethoxy-phenyl]-acetic acid]: 0.0047 µM; for `O=C(O)Cc1ccc(-c2ccc(F)c3c2CN(C(=O)[C@@H]2C[C@H]2c2ccccc2)CC3)c(OCC(F)(F)F)c1` [Example 289, [4-[5-Fluoro-2-((1R,2R)-2-phenyl-cyclopropanecarbonyl)-1,2,3,4-tetrahydro-isoquinolin-8-yl]-3-(2,2,2-trifluoro-ethoxy)-phenyl]-acetic acid]: 0.0014 µM.
The same measure for `CCOc1ccc(CC(=O)O)cc1-c1ccc(F)c2c1CN(C(=O)/C=C/c1cnn(C)c1)CC2` [Example 341, (4-Ethoxy-3-{5-fluoro-2-[(E)-3-(1-methyl-1H-pyrazol-4-yl)-acryloyl]-1,2,3,4-tetrahydro-isoquinolin-8-yl}-phenyl)-acetic acid]: 0.0058 µM.
